Test results taken from patent US10487068B2, “Pyridazine derivatives as RORc modulators” (Genentech, Inc., priority 2015, dated 2019).
pIC50: −log10 of the molar value.

Each compound was assayed against T1, RORc ligand binding domain (Homo sapiens, UniProt P51449) (assay: In Vitro RORc Ligand Binding Assay). Details: RORc IC50, radioligand 25-[3H]hydroxycholesterol 6 nM; 0.6 ug/mL RORc receptor; 3 h at 25° C.
T1 sequence (P51449 269-508 limits assumed): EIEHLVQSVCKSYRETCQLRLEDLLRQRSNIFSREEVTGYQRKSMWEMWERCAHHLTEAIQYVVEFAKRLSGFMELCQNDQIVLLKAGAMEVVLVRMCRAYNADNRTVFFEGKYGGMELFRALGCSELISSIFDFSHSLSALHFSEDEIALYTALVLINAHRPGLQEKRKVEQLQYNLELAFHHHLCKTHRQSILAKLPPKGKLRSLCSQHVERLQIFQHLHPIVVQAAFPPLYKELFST

First: CC1(C)[C@H]2CC[C@]1(c1ccc(C#N)nc1)c1nnc(-c3c(F)cccc3Cl)cc12 [Example 172, 5-((5R,8S)-3-(2-chloro-6-fluorophenyl)-9,9-dimethyl-5,6,7,8-tetrahydro-5,8-methanocinnolin-8-yl)picolinonitrile]
Second: CC1(C)[C@H]2CC[C@]1(c1cc(NS(C)(=O)=O)ccn1)c1nnc(-c3c(F)cccc3F)cc12 [Example 78]
The pIC50 of the first is 0.88 log units higher: 6.80 for the first, 5.92 for the second. The first is the more potent here.

First: CC1(C)[C@H]2CC[C@]1(c1cc(-c3c[nH]c(=O)[nH]3)ccn1)c1nnc(-c3c(F)cccc3F)cc12 [Example 244]
Second: Cc1n[nH]cc1-c1nccc([C@@]23CC[C@@H](c4cc(-c5c(F)cccc5F)nnc42)C3(C)C)n1 [Example 298]
The pIC50 of the first is 1.32 log units lower: 6.92 for the first, 8.24 for the second.

First: CC(C)(O)c1c[nH]c(-c2cncc([C@@]34CC[C@@H](c5cc(-c6c(F)cccc6F)nnc53)C4(C)C)n2)n1 [Example 280, 2-(2-(6-((5R,8S)-3-(2,6-difluorophenyl)-9,9-dimethyl-5,6,7,8-tetrahydro-5,8-methanocinnolin-8-yl)pyrazin-2-yl)-1H-imidazol-4-yl)propan-2-ol]
Second: CC(C)(O)c1ncc(-c2cncc([C@@]34CC[C@@H](c5cc(-c6c(F)cccc6F)nnc53)C4(C)C)n2)o1 [Example 347, 2-(5-(6-((5R,8S)-3-(2,6-difluorophenyl)-9,9-dimethyl-5,6,7,8-tetrahydro-5,8-methanocinnolin-8-yl)pyrazin-2-yl)oxazol-2-yl)propan-2-ol]
The pIC50 of the first is 0.30 log units lower: 7.87 for the first, 8.17 for the second. The second is the more potent here.

`CC1(C)[C@H]2CC[C@]1(c1cccc(C(=O)Nc3c[nH]c(=O)cn3)n1)c1nnc(-c3c(F)cccc3F)cc12` [Example 96, 6-((5R,8S)-3-(2,6-difluorophenyl)-9,9-dimethyl-5,6,7,8-tetrahydro-5,8-methanocinnolin-8-yl)-N-(5-oxo-4,5-dihydropyrazin-2-yl)picolinamide] and `CN(C)C(=O)c1cccc([C@@]23CC[C@@H](c4cc(-c5c(F)cccc5F)nnc42)C3(C)C)n1` [Example 18, 6-((5R,8S)-3-(2,6-difluorophenyl)-9,9-dimethyl-5,6,7,8-tetrahydro-5,8-methanocinnolin-8-yl)-N,N-dimethylpicolinamide] are within 0.2 log units of each other in pIC50: 7.46 for the first, 7.45 for the second.

Going from `CC1(C)[C@H]2CC[C@]1(c1cncc(-c3nc(CCO)n[nH]3)n1)c1nnc(-c3c(F)cccc3F)cc12` [Example 306, 2-(5-(6-((5R,8S)-3-(2,6-difluorophenyl)-9,9-dimethyl-5,6,7,8-tetrahydro-5,8-methanocinnolin-8-yl)pyrazin-2-yl)-1H-1,2,4-triazol-3-yl)ethanol] to `CC1(C)[C@H]2CC[C@]1(c1cncc(-c3ccn[nH]3)n1)c1nnc(-c3c(F)cccc3F)cc12` [Example 246], the pIC50 rises from 7.79 to 8.08 (0.29 log units).

First: Cc1ncn(-c2nccc([C@@]34CC[C@@H](c5cc(-c6c(F)cccc6F)nnc53)C4(C)C)n2)n1 [Example 212]
Second: Cc1ncn(-c2cccc([C@@]34CC[C@@H](c5cc(-c6c(F)cccc6F)nnc53)C4(C)C)n2)n1 [Example 270]
The pIC50 of the first is 1.17 log units lower: 7.55 for the first, 8.72 for the second.

`CC(C)(O)c1nnc(-c2nccc([C@@]34CC[C@@H](c5cc(-c6c(F)cccc6F)nnc53)C4(C)C)n2)[nH]1` [Example 262] and `CC(C)(O)c1nnc(-c2ncc(F)c([C@@]34CC[C@@H](c5cc(-c6c(F)cccc6F)nnc53)C4(C)C)n2)[nH]1` [Example 234] are within 0.2 log units of each other in pIC50: 7.43 for the first, 7.44 for the second.

Going from `CC1(C)[C@H]2CC[C@]1(c1ccnc(N3C[C@H](O)[C@@H](O)C3)n1)c1nnc(-c3c(F)cccc3F)cc12` [Example 152] to `CC1(C)[C@H]2CC[C@]1(c1ccnc(-n3cc(CO)cn3)n1)c1nnc(-c3c(F)cccc3F)cc12` [Example 238], the pIC50 rises from 6.76 to 7.40 (0.64 log units).

Going from `CC1(C)[C@H]2CC[C@]1(c1nccc(NCCO)n1)c1nnc(-c3c(F)cccc3F)cc12` [Example 97, 2-((2-((5R,8R)-3-(2,6-difluorophenyl)-9,9-dimethyl-5,6,7,8-tetrahydro-5,8-methanocinnolin-8-yl)pyrimidin-4-yl)amino)ethanol] to `CC1(C)[C@H]2CC[C@]1(c1cccc(S(=O)(=O)NCCO)n1)c1nnc(-c3c(F)cccc3F)cc12` [Example 162, 6-((5R,8S)-3-(2,6-difluorophenyl)-9,9-dimethyl-5,6,7,8-tetrahydro-5,8-methanocinnolin-8-yl)-N-(2-hydroxyethyl)pyridine-2-sulfonamide], the pIC50 rises from 7.01 to 7.64 (0.63 log units).

`CC1(C)[C@H]2CC[C@]1(c1cncc(C(=O)NCCCO)n1)c1nnc(-c3c(F)cccc3F)cc12` [Example 85, 6-((5R,8S)-3-(2,6-difluorophenyl)-9,9-dimethyl-5,6,7,8-tetrahydro-5,8-methanocinnolin-8-yl)-N-(3-hydroxypropyl)pyrazine-2-carboxamide] and `COCCNC(=O)c1cncc([C@@]23CC[C@@H](c4cc(-c5c(F)cccc5F)nnc42)C3(C)C)n1` [Example 36, 6-((5R,8S)-3-(2,6-difluorophenyl)-9,9-dimethyl-5,6,7,8-tetrahydro-5,8-methanocinnolin-8-yl)-N-(2-methoxyethyl)pyrazine-2-carboxamide] are within 0.2 log units of each other in pIC50: 7.51 for the first, 7.43 for the second.

First: CCS(=O)(=O)Cc1coc(-c2cncc([C@@]34CC[C@@H](c5cc(-c6c(F)cccc6F)nnc53)C4(C)C)n2)n1 [Example 434, 2-(6-((5R,8S)-3-(2,6-difluorophenyl)-9,9-dimethyl-5,6,7,8-tetrahydro-5,8-methanocinnolin-8-yl)pyrazin-2-yl)-4-((ethylsulfonyl)methyl)oxazole]
Second: CC1(C)[C@H]2CC[C@]1(c1cncc(-c3nc(CC#N)co3)n1)c1nnc(-c3c(F)cccc3F)cc12 [Example 380, 2-(2-(6-((5R,8S)-3-(2,6-difluorophenyl)-9,9-dimethyl-5,6,7,8-tetrahydro-5,8-methanocinnolin-8-yl)pyrazin-2-yl)oxazol-4-yl)acetonitrile]
The pIC50 of the first is 0.25 log units lower: 7.96 for the first, 8.21 for the second. The second is the more potent here.

Compared with `CC1(C)[C@H]2CC[C@]1(c1cncc(C(=O)N3CC(C#N)C3)n1)c1nnc(-c3c(F)cccc3F)cc12` [Example 30, 1-(6-((5R,8S)-3-(2,6-difluorophenyl)-9,9-dimethyl-5,6,7,8-tetrahydro-5,8-methanocinnolin-8-yl)pyrazine-2-carbonyl)azetidine-3-carbonitrile], `CC1(C)[C@H]2CC[C@]1(c1cncc(C(=O)N[C@H]3C[C@H](O)C3)n1)c1nnc(-c3c(F)cccc3F)cc12` [Example 94, 6-((5R,8S)-3-(2,6-difluorophenyl)-9,9-dimethyl-5,6,7,8-tetrahydro-5,8-methanocinnolin-8-yl)-N-((1r,3S)-3-hydroxycyclobutyl)pyrazine-2-carboxamide] is 0.83 log units higher in pIC50: 6.84 for the first, 7.67 for the second. The second is the more potent here.

`CC1(C)[C@H]2CC[C@]1(c1cncc(-c3ccn(CC(N)=O)n3)n1)c1nnc(-c3c(F)cccc3F)cc12` [Example 411, 2-(3-(6-((5R,8S)-3-(2,6-difluorophenyl)-9,9-dimethyl-5,6,7,8-tetrahydro-5,8-methanocinnolin-8-yl)pyrazin-2-yl)-1H-pyrazol-1-yl)acetamide] and `CC(C)(O)Cn1cc(-c2cncc([C@@]34CC[C@@H](c5cc(-c6c(F)cccc6F)nnc53)C4(C)C)n2)cn1` [Example 406, 1-(4-(6-((5R,8S)-3-(2,6-difluorophenyl)-9,9-dimethyl-5,6,7,8-tetrahydro-5,8-methanocinnolin-8-yl)pyrazin-2-yl)-1H-pyrazol-1-yl)-2-methylpropan-2-ol] are within 0.2 log units of each other in pIC50: 8.06 for the first, 8.12 for the second.

Compared with `CC1(C)[C@H]2CC[C@]1(c1ccnc(NCc3n[nH]c(=O)[nH]3)n1)c1nnc(-c3c(F)cccc3F)cc12` [Example 155], `C[C@H](O)CNC(=O)c1nccc([C@@]23CC[C@@H](c4cc(-c5c(F)cccc5F)nnc42)C3(C)C)n1` [Example 114] is 0.23 log units higher in pIC50: 7.18 for the first, 7.41 for the second. The second is the more potent here.

Compared with `Cc1cc(-c2ccnc([C@@]34CC[C@@H](c5cc(-c6c(F)cccc6F)nnc53)C4(C)C)n2)no1` [Example 266, 3-(2-((5R,8R)-3-(2,6-difluorophenyl)-9,9-dimethyl-5,6,7,8-tetrahydro-5,8-methanocinnolin-8-yl)pyrimidin-4-yl)-5-methylisoxazole], `Cc1nnc(-c2cccc([C@@]34CC[C@@H](c5cc(-c6c(F)cccc6F)nnc53)C4(C)C)n2)[nH]1` [Example 149] is 0.75 log units lower in pIC50: 8.37 for the first, 7.62 for the second. The first is the more potent here.

`C[C@@H](O)c1nnc(-c2cccc([C@@]34CC[C@@H](c5cc(-c6c(F)cccc6F)nnc53)C4(C)C)n2)[nH]1` [Example 221, (R)-1-(5-(6-((5R,8S)-3-(2,6-difluorophenyl)-9,9-dimethyl-5,6,7,8-tetrahydro-5,8-methanocinnolin-8-yl)pyridin-2-yl)-4H-1,2,4-triazol-3-yl)ethanol] and `CC(C)(O)c1cnc(-c2nccc([C@@]34CC[C@@H](c5cc(-c6c(F)cccc6F)nnc53)C4(C)C)n2)cn1` [Example 415] are within 0.2 log units of each other in pIC50: 7.63 for the first, 7.66 for the second.

First: CNC(=O)c1nc(-c2ncc(F)c([C@@]34CC[C@@H](c5cc(-c6c(F)cccc6F)nnc53)C4(C)C)n2)no1 [Example 277]
Second: CC1(C)[C@H]2CC[C@]1(c1cnc(C(N)=O)cn1)c1nnc(-c3c(F)cccc3F)cc12 [Example 13, 5-((5R,8S)-3-(2,6-difluorophenyl)-9,9-dimethyl-5,6,7,8-tetrahydro-5,8-methanocinnolin-8-yl)pyrazine-2-carboxamide]
The pIC50 of the first is 2.54 log units higher: 7.91 for the first, 5.37 for the second. The first is the more potent here.

Compared with `CC(C)(O)c1nc(-c2cncc([C@@]34CC[C@@H](c5cc(-c6c(F)cccc6F)nnc53)C4(C)C)n2)oc1CO` [Example 433, 2-(2-(6-((5R,8S)-3-(2,6-difluorophenyl)-9,9-dimethyl-5,6,7,8-tetrahydro-5,8-methanocinnolin-8-yl)pyrazin-2-yl)-5-(hydroxymethyl)oxazol-4-yl)propan-2-ol], `CC1(C)[C@H]2CC[C@]1(c1cncc(C3=NNC(=O)CN3)n1)c1nnc(-c3c(F)cccc3F)cc12` [Example 296, 3-(6-((5R,8S)-3-(2,6-difluorophenyl)-9,9-dimethyl-5,6,7,8-tetrahydro-5,8-methanocinnolin-8-yl)pyrazin-2-yl)-4,5-dihydro-1,2,4-triazin-6(1H)-one] is 0.27 log units higher in pIC50: 7.41 for the first, 7.68 for the second.
